We go through 13 compounds from ChEMBL document CHEMBL1139247 (Bioorg Med Chem Lett, 2009).

pIC50: −log10 of the molar value.

A short description of data set [1]: Displacement of [3H]gabapentin from alpha2-delta subunit of voltage gated calcium channel in pig brain membrane. The class given is cell membranes, Sus scrofa. For orientation: Displacement assays read how much labelled ligand stays bound in the presence of the test substance.
The nature of data set [2]: Displacement of [3H]leucine from Large neutral amino acids transporter system L in CHO cells. The class given is cell-based, Cricetulus griseus.
In data set [3] the test system is Mus musculus. Briefly: Anticonvulsant activity in DBA/2 mouse assessed as protection from audiogenically-induced tonic seizures at 30 mg/kg, po after 1 hr. The class given is functional.
Data set [4] concerns Mus musculus. Briefly: Anxiolytic activity in DBA/2 mouse assessed as restoration of punished drinking behavior at 30 mg/kg, po relative to pregabalin. The class given is functional.
Data set [5] in a line: Plasma concentration in Sprague-Dawley rat at 30 mg/kg, po after 2 hrs. The class given is ADME, organism-based. The arrangement: dose 30 mg/kg, route oral.
A short description of data set [6]: Unbound fraction in rat. The class given is ADME, organism-based. Particulars: in vivo.
Data set [7] is described as follows: Bioavailability in rat. Particulars: in vivo. The class given is ADME, organism-based.
A short description of data set [8]: Clearance in rat. As to conditions: in vivo. The class given is ADME, organism-based.
Data set [9] in a line: Half life in rat plasma. The class given is ADME, organism-based.
The nature of data set [10]: AUC in rat. The class given is ADME, organism-based. Particulars: plasma.
Data set [11] is described as follows: Volume of distribution at steady state in rat. The class given is ADME, organism-based. As to conditions: in vivo, read-out: Vdss.
In data set [12] the test system is Rattus norvegicus. Briefly: Reduction in renal clearance in Wistar rat at 3 mg/kg, iv after 5 mins in presence of probenecid relative to control. The class given is ADME, organism-based. On the set-up: dose 3 mg/kg, route intravenous. As to conditions: in vivo.
The subject of data set [13] is Rattus norvegicus. Briefly: Reduction in renal clearance in Wistar rat at 3 mg/kg, iv after 5 mins in presence of cimetidine relative to control. The class given is ADME, organism-based. On the set-up: dose 3 mg/kg, route intravenous. As to conditions: in vivo.
Data set [14] in a line: Drug level in Sprague-Dawley rat brain at 30 mg/kg, po after 2 hrs.

The pIC50 is the IC50 on a negative log10 scale, so that one unit is a factor of ten. Regarding `NCC1(Cc2nnn[nH]2)CCCCC1`, the pIC50 in [1] is 7.00; in data set [2], below 2.00.

In the case of `Cn1nnnc1CC1(CN)CCCCC1`, in data set [1], the negative-log IC50 (pIC50) was below 5.00.

By fraction unbound is commonly meant the share of the substance not bound to proteins or other matrix. A lower fraction unbound goes with little free substance. In general, bioavailability refers to dose-corrected exposure relative to a reference, in per cent. Low readings indicate little systemic uptake, high ones much systemic uptake. For orientation: clearance means the volume of plasma or blood freed of the substance per unit of time. A word on the half-life: it is the time needed for the level to fall by half in the phase considered. A high value points to slow loss. Usually AUC stands for the area under the concentration-time curve, a measure of exposure. Low readings indicate low exposure, high ones high exposure. In turn, `NCC1(Cc2noc(=O)[nH]2)CCCCC1` gave a pIC50 in data set [2] below 2.00. Also, the Activity was found to be 20% with Mus musculus [3] and 11% with Mus musculus [4]. In [5], the concentration at 2 h was 15000 ng/mL. In data set [6], this compound returned a fraction unbound above 0.9. Also, the bioavailability in [7] was 97%. Moreover, in data set [8], the clearance came out at 20.3 mL/min/kg. The compound further showed a half-life in data set [9] of 1.6 h. In data set [10], this compound showed an AUC of 2200 ng·h/mL. Further, the Vd in data set [11] worked out at 1.25 L/kg. For the same compound, the “reduction in CL_renal” value in the data set with Rattus norvegicus [12] was found to be 57%; in the data set on Rattus norvegicus [13], 35%.

For `NCC1(Cc2noc(=O)[nH]2)CCCCCC1`, the pIC50 in data set [1] is 6.80.

Take `NCC1(Cc2noc(=O)[nH]2)CCCC1`: in data set [1], the negative-log IC50 (pIC50) is 5.94.

For `NCC1(Cc2noc(=O)[nH]2)CCCCCCC1`, in [1], the pIC50 is 5.25.

For `C[C@@H]1CCC[C@@](CN)(Cc2noc(=O)[nH]2)C1`, the negative-log IC50 (pIC50) in data set [1] was 7.08.

Consider `C[C@@H]1C[C@H](C)C[C@@](CN)(Cc2noc(=O)[nH]2)C1`, for which the pIC50 in data set [1] was 7.15.

Take `C[C@@H]1C[C@H](C)C[C@](CN)(Cc2noc(=O)[nH]2)C1`: the pIC50 in [1] is below 5.00.

On to `Cn1c(CC2(CN)CCCCC2)noc1=O`, for which, in data set [1], the pIC50 is below 5.00.

`CC(C)CC(CN)Cc1noc(=O)[nH]1` (racemic): the pIC50 in data set [1] is 5.82.

As for `NCC1(CC(=O)O)CCCCC1` [GABAPENTIN], the pIC50 in data set [1] is 7.15; in data set [2] it was 4.52. Besides, the Activity with Mus musculus [3] is reported as 100%; in the data set on Mus musculus [4], 60%. In addition, the half-life in [9] is 1.5 h.

`CC(C)C[C@H](CN)CC(=O)O` [PREGABALIN] gave a negative logarithm of the IC50 (pIC50) in [2] of 3.80. For the same compound, the Activity in the data set on Mus musculus [3] and with Mus musculus [4] was 100% each time. Also, the concentration at 2 h was determined as 7360 ng/mL in data set [14] and 25600 ng/mL in data set [5]. In [7], this compound had a bioavailability of 83%. Further, in data set [8], the clearance stood at 2.9 mL/min/kg. The compound also had a half-life in data set [9] of 2.7 h. In [10], this compound registered an area under the curve (AUC) of 14800 ng·h/mL. Moreover, the Vd in data set [11] was determined as 0.79 L/kg.
